Data: PMC3029338, “Highly Selective End-Tagged Antimicrobial Peptides Derived from PRELP” (PLoS ONE, 2011)
Ends that are not written are not given here.

Legend:
P. aeruginosa elastase = target: T1, P. aeruginosa elastase (Pseudomonas aeruginosa, UniProt P14756); format: in vitro ADME; conditions: 37°C, in words; for stability against P. aeruginosa elastase, extended digestion: different times up to 18 h, SDS-PAGE; for stability against P. aeruginosa elastase: 1 µg peptide, 0.1 µg enzyme, 30 µl, 3 hours (legend: 4 h), SDS-PAGE Coomassie
T1 construct: purchased Calbiochem (La Jolla, USA)
Method: […] The materials were analyzed on 16.5% precast sodium dodecyl sulfate polyacrylamide (SDS-PAGE) Tris-Tricine gels (BioRad, Hercules, USA) and analyzed after staining with Coomassie Blue R-250 (Merck, Darmstadt, Germany).

S. aureus V8 proteinase = target: T2, S. aureus V8 proteinase (Staphylococcus aureus, UniProt P0C1U8); experiment: Protease sensitivity assay (SDS-PAGE); format: in vitro ADME; conditions: 1 µg peptide, 0.1 µg enzyme, 30 µl, 37°C, 3 hours (legend: 4 h), SDS-PAGE Coomassie; in words
T2 construct: purchased BioCol GmbH (Potsdam, Germany)
Method: (§1) For evaluation of sensitivity to bacterial and endogenous proteases, peptides (1 µg) were incubated at 37°C with S. aureus aureolysin (0.1 µg, 25000 units/mg), S. aureus V8 proteinase (0.1 µg, 2000 mU), both from BioCol GmbH (Potsdam, Germany), human neutrophil elastase (0.4 µg, 29 units/mg; Calbiochem (La Jolla, USA)) or P. aeruginosa elastase (0.1 µg, 261 units/mg) (Calbiochem, La Jolla, USA) in a total volume of 30 µl for 3 hours. The materials were analyzed on 16.5% precast sodium dodecyl sulfate polyacrylamide (SDS-PAGE) Tris-Tricine gels (BioRad, Hercules, USA) and analyzed after staining with Coomassie Blue R-250 (Merck, Darmstadt, Germany).

S. aureus aureolysin = target: T3, S. aureus aureolysin (Staphylococcus aureus, UniProt P81177); experiment: Protease sensitivity assay (SDS-PAGE); format: in vitro ADME; conditions: 1 µg peptide, 0.1 µg enzyme, 30 µl, 37°C, 3 hours (legend: 4 h), SDS-PAGE Coomassie; in words
T3 construct: purchased BioCol GmbH (Potsdam, Germany)
Method: as §1

P. aeruginosa = conditions: in words; cited from earlier work
Excerpt: (§2) Considering the increasing resistance problems against conventional antibiotics, AMPs have recently emerged as potential therapeutic candidates in the above conditions. For example, the indolicidin-derived peptide omiganan is currently being evaluated in Phase III clinical trials for treatment of catheter-related infections. However, the use of AMPs in this context is challenging, as bacteria are able to excrete proteolytic enzymes, [38], and in the case of P. aeruginosa also AMP-scavenging exopolysaccharides, as a defense against AMPs.

S. aureus = conditions: in words; cited from earlier work
Excerpt: as §2

erythrocytes = conditions: cited from earlier work
Excerpt: as §2

[1] = target: T4, human neutrophil elastase (Homo sapiens, UniProt P08246); experiment: Protease sensitivity assay (SDS-PAGE); format: in vitro ADME; conditions: 1 µg peptide, 0.4 µg enzyme, 30 µl, 37°C, 3 hours (legend: 4 h), SDS-PAGE Coomassie; in words
T4 construct: purchased Calbiochem (La Jolla, USA)
Method: as §1

[2] = system: human erythrocytes in 50% citrate blood with S. aureus or P. aeruginosa; conditions: peptide 120 µM (highest dose), 1 hour 37°C, in words
Method: For analysis of peptide-induced permeabilization of human erythroytes, EDTA-, or citrate-blood was drawn from healthy volunteers, [51], centrifuged at 800 g for 10 min, and plasma and buffy coat were removed. For experiments using EDTA-blood, [51] erythrocytes were washed three times and resuspended to 5% in PBS, pH 7.4. For experiments in 50% blood, citrate-blood was diluted (1∶1) with PBS. The cells were then incubated with end-over-end rotation for 1 h at 37°C in the presence of peptides (60 µM). 2% Triton X-100 (Sigma-Aldrich, St. Louis, USA) served as positive control. The samples were then centrifuged at 800 g for 10 min. The absorbance of hemoglobin release was measured at 540 nm and is expressed as % of TritonX-100 induced hemolysis. In the experiments with blood infected by bacteria, citrate-blood was diluted (1∶1) with PBS. The cells were then incubated with end-over-end rotation for 1 h at 37°C in the presence of peptides (60 and 120 µM) and S. aureus (2×10^8 cfu/ml) or P. aeruginosa (2×10^8 cfu/ml) bacteria. For evaluation of hemolysis, samples were then processed as above. Results given represent mean values from triplicate measurements.

[3] = system: Staphylococcus aureus - multi-drug-resistant clinical isolate; format: cell-based
Method: (§3) In order to determine the minimal inhibitory concentration (MIC) for a given peptide and bacteria, we used a standardized dilution method according to NCSLA guidelines. In brief, fresh overnight colonies were suspended to a turbidity of 0.5 units and further diluted in Mueller-Hinton broth (MH) (Becton Dickinson). For determination of MIC, peptides were dissolved in water at concentration 10 times higher than the required range by serial dilutions from a stock solution. Ten µl of each concentration was added to each corresponding well of a 96-well microtiter plate (polypropylene, Costar Corp.) and 90 µl of bacteria (1×10^5) in MH medium added. The plate was incubated at 37°C for 16–18 h. MIC was considered as the lowest concentration of peptide where no visual growth of bacteria was detected. Additional MIC determinations presented in Table 2 were performed using cation-adjusted MH broth at Quotient Bioresearch Ltd., Fordham, United Kingdom.

[4] = system: Escherichia coli - multi-drug resistant clinical isolate; format: cell-based
Method: as §3

[5] = system: Staphylococcus saprophyticus – antibiotic susceptible clinical isolate; format: cell-based
Method: as §3

[6] = system: HT2001254 Staphylococcus aureus (MRSA) – PVL positive; format: cell-based
Method: as §3

[7] = system: Escherichia coli ATCC 25922 - antibiotic-susceptible type strain; format: cell-based
Method: as §3

[8] = system: EMRSA1 Staphylococcus aureus (MRSA) – SSCmec type 3; format: cell-based; conditions: EMRSA1 – SSCmec type 3
Method: as §3

[9] = system: EMRSA16 Staphylococcus aureus (MRSA) – SSCmec type 2; format: cell-based; conditions: EMRSA16 – SSCmec type 2
Method: as §3

[10] = system: EMRSA3 Staphylococcus aureus (MRSA) – SSCmec type 1; format: cell-based; conditions: EMRSA3 – SSCmec type 1
Method: as §3

[11] = system: Pseudomonas aeruginosa - multi-drug resistant clinical isolate; format: cell-based
Method: as §3

[12] = system: Staphylococcus epidermidis– methicillin-resistant clinical isolate; format: cell-based
Method: as §3

[13] = system: Group C Streptococcus – antibiotic-susceptible clinical isolate; format: cell-based
Method: as §3

[14] = system: Streptococcus pyogenes – ATCC 19615; format: cell-based
Method: as §3

[15] = system: Streptococcus pyogenes – Macrolide (M-type) resistance clinical isolate; format: cell-based
Method: as §3

[16] = system: Escherichia coli - ESBL - SHV; format: cell-based
Method: as §3

[17] = system: Escherichia coli ATCC 35218 - β-lactamase positive type strain; format: cell-based
Method: as §3

[18] = system: Staphylococcus aureus ATCC 29213 – antibiotic-susceptible type strain; format: cell-based
Method: as §3

[19] = system: Staphylococcus aureus - teicoplanin-intermediate clinical isolate; format: cell-based
Method: as §3

[20] = system: Staphylococcus aureus ATCC 43300 – methicillin-resistant type strain; format: cell-based
Method: as §3

[21] = system: MU50 Staphylococcus aureus (MRSA) – VISA type strain; format: cell-based
Method: as §3

[22] = system: Group C Streptococcus – macrolide-resistant clinical isolate; format: cell-based
Method: as §3

[23] = system: Staphylococcus epidermidis – antibiotic susceptible clinical isolate; format: cell-based
Method: as §3

[24] = system: Streptococcus pyogenes – antibiotic-susceptible clinical isolate; format: cell-based
Method: as §3

[25] = system: Streptococcus pyogenes – Macrolide (MLS) resistant clinical isolate; format: cell-based
Method: as §3

[26] = system: Group G Streptococcus – antibiotic-susceptible clinical isolate; format: cell-based
Method: as §3

[27] = system: Escherichia coli - ESBL - CTXM; format: cell-based
Method: as §3

[28] = system: Staphylococcus aureus – methicillin-resistant clinical isolate; format: cell-based
Method: as §3

[29] = system: Escherichia coli - ESBL - TEM; format: cell-based
Method: as §3

[30] = system: Pseudomonas aeruginosa – Liverpool genotype LES 431; format: cell-based
Method: as §3

[31] = system: Pseudomonas aeruginosa ATCC 27853 - antibiotic-susceptible type strain; format: cell-based
Method: as §3

[32] = system: Staphylococcus haemolyticus – antibiotic susceptible clinical isolate; format: cell-based
Method: as §3

[33] = system: EMRSA15 Staphylococcus aureus (MRSA) – SSCmec type 4; format: cell-based; conditions: EMRSA15 – SSCmec type 4
Method: as §3

[34] = system: Group G Streptococcus – macrolide-resistant clinical isolate; format: cell-based
Method: as §3

T1 sequence (P14756 198-498): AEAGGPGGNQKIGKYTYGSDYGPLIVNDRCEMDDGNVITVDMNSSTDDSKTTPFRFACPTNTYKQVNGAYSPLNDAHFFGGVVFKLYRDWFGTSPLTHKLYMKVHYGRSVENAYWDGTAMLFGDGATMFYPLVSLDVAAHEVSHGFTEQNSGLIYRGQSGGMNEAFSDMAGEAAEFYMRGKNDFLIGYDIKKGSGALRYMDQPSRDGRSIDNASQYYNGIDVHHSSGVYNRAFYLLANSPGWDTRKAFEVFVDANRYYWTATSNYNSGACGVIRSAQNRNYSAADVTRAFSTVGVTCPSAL
T3 sequence (P81177 209-509): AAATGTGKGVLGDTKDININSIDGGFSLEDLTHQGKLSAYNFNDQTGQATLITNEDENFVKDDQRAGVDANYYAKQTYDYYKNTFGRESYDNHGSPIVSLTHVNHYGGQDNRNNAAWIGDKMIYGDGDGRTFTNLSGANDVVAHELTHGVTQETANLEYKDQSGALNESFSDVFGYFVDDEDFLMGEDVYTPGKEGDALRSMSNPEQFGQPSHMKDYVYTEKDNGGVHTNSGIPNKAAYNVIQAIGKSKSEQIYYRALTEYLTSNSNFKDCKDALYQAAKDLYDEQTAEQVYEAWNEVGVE
T2 sequence (P0C1U8 69-336): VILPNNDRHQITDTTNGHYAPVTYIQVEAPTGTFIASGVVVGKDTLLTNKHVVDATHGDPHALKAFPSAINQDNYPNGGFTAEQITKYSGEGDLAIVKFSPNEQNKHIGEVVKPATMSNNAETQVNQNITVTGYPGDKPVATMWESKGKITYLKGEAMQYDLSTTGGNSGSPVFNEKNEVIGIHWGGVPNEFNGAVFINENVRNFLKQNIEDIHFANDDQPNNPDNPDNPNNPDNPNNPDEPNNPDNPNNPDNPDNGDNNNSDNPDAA
T4 sequence (P08246 30-267): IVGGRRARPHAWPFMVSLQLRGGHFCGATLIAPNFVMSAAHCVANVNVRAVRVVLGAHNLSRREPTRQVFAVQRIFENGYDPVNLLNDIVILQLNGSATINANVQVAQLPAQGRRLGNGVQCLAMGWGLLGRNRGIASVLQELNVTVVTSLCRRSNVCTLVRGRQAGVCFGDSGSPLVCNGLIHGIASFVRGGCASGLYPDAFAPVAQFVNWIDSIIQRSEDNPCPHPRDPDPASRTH

In the case of “ILRWPWWPWRRK-NH2 [ILRWPWWPWRRK-NH2, reference compound]”, the “stability against P. aeruginosa elastase, extended digestion” value (P. aeruginosa elastase) is reported as “degraded during extended digestion”.

In the case of GRRPRPRPRPWWWW-NH2 [GRRPRPRPRPWWWW-NH2], the “stability against P. aeruginosa elastase” value (P. aeruginosa elastase) is reported as “largely unaffected”, the “stability against S. aureus V8 proteinase” value (S. aureus V8 proteinase) is reported as “largely unaffected” and the “stability against S. aureus aureolysin” value (S. aureus aureolysin) is reported as “largely unaffected”.

For “QPTRRPRPGTGPGRRPRPRPRP [QPT22, PRELP-derived peptide of earlier work]”, the antimicrobial effects (P. aeruginosa) is listed as “exert antimicrobial effects”, the antimicrobial effects (S. aureus) is listed as “exert antimicrobial effects” and the hemolytic activity (erythrocytes) is listed as “no hemolytic activity”.

In the case of `CC[C@H](C)[C@H](NC(=O)[C@H](CCCCN)NC(=O)[C@H](CCC(=O)O)NC(=O)[C@H](CCCCN)NC(=O)[C@H](CO)NC(=O)[C@H](CCCCN)NC(=O)[C@H](CCCNC(=N)N)NC(=O)[C@H](Cc1ccccc1)NC(=O)[C@H](Cc1ccccc1)NC(=O)[C@H](CC(=O)O)NC(=O)CNC(=O)[C@H](CC(C)C)NC(=O)[C@@H](N)CC(C)C)C(=O)NCC(=O)N[C@@H](CCCCN)C(=O)N[C@@H](CCC(=O)O)C(=O)N[C@@H](Cc1ccccc1)C(=O)N[C@@H](CCCCN)C(=O)N[C@@H](CCCNC(=N)N)C(=O)N[C@H](C(=O)N[C@H](C(=O)N[C@@H](CCC(N)=O)C(=O)N[C@@H](CCCNC(=N)N)C(=O)N[C@H](C(=O)N[C@@H](CCCCN)C(=O)N[C@@H](CC(=O)O)C(=O)N[C@@H](Cc1ccccc1)C(=O)N[C@@H](CC(C)C)C(=O)N[C@@H](CCCNC(=N)N)C(=O)N[C@@H](CC(N)=O)C(=O)N[C@@H](CC(C)C)C(=O)N[C@H](C(=O)N1CCC[C@H]1C(=O)N[C@@H](CCCNC(=N)N)C(=O)N[C@H](C(=O)N[C@@H](CCC(=O)O)C(=O)N[C@@H](CO)C(=O)O)[C@@H](C)O)C(C)C)[C@@H](C)CC)C(C)C)[C@@H](C)CC` [reference compound], the “stability against P. aeruginosa elastase” value (P. aeruginosa elastase) is reported as “extensively degraded”, the “stability against S. aureus V8 proteinase” value (S. aureus V8 proteinase) is reported as “extensively degraded” and the “stability against S. aureus aureolysin” value (S. aureus aureolysin) is reported as “extensively degraded”. The “stability against human neutrophil elastase” value [1] was “extensively degraded” and the “hemolysis in human blood infected by bacteria” value [2] was “significant concomitant hemolysis”.

For RRPRPRPRPWWWW-NH2 [RRPRPRPRPWWWW-NH2], the “stability against P. aeruginosa elastase” value (P. aeruginosa elastase) was “largely unaffected”, the “stability against P. aeruginosa elastase, extended digestion” value (P. aeruginosa elastase) was “maintained stability” and the MIC [3] was 32 µg/mL. The MIC [4] was 16 µg/mL, the MIC [5] was 64 µg/mL and the MIC [6] was 32 µg/mL. It also gave an MIC [7] of 16 µg/mL, an MIC [8] of 32 µg/mL and an MIC [9] of 32 µg/mL. For the same compound, the MIC [10] was 16 µg/mL, the MIC [11] was 128 µg/mL and the MIC [12] was 8 µg/mL. The MIC [13] was 8 µg/mL, the MIC [14] was 16 µg/mL and the MIC [15] was 16 µg/mL. The MIC [16] was 32 µg/mL, the MIC [17] was 16 µg/mL and the MIC [18] was 16 µg/mL. For the same compound, the MIC [19] was 32 µg/mL, the MIC [20] was 16 µg/mL and the MIC [21] was 32 µg/mL. It also gave an MIC [22] of 8 µg/mL, an MIC [23] of 8 µg/mL and an MIC [24] of 32 µg/mL. It also gave an MIC [25] of 16 µg/mL, an MIC [26] of 32 µg/mL and an MIC [27] of 16 µg/mL. The MIC [28] was 32 µg/mL, the MIC [29] was 16 µg/mL and the MIC [30] was 128 µg/mL. It also gave an MIC [31] of 64 µg/mL, an MIC [32] of 8 µg/mL and an MIC [33] of 16 µg/mL. The MIC [34] was 16 µg/mL, the “stability against S. aureus V8 proteinase” value (S. aureus V8 proteinase) was “largely unaffected” and the “stability against S. aureus aureolysin” value (S. aureus aureolysin) was “largely unaffected”. The “hemolysis in human blood infected by bacteria” value [2] was “no accompanying hemolysis”.
